Assay results: patent US10765134B2, “Foodstuff containing citrus products having added 4-hydroxyflavanones” (SYMRISE AG, priority 2015, dated 2020)
Structures can show the parent of a compound that is named as a salt.

Assay: Evaluation of taste (bitter, sour, sweet) by panellists, orange juice with and without added 4-hydroxyflavanone
Type: in vivo
Excerpt: Masking the perception of sour and the bitterness in orange juice, which was obtained from premature fruits and/or HLB infected fruits with at least 5 ppm limonin
A commercial orange juice was used for the experiments, which according to an analysis contains 7.8 ppm limonin and was regularly evaluated as too bitter from the panellists. The panellists (n=6) thereby evaluate the 3 attributes “sweet”, “bitter” and “sour” on an unstructured scale of 0 (no taste) to 10 (strong taste). In one sample, the panellists received the orange juice alone, in a further sample, they received the orange juice which was supplemented with an amount of 4-hydroxyflavanone as listed in one of the tables. Thereby, the order was arbitrary and not known to the panellists before.

[1] = 10 ppm in the examined orange juice
[2] = 10 ppm racemic eriodictyol vs orange juice (7.8 ppm limonin) alone, Example 2
[3] = B (10 ppm racemic eriodictyol) vs A (orange juice 7.8 ppm limonin alone), Example 5
[4] = orange juice containing 7.8 ppm limonin + 10 ppm racemic eriodictyol, scale 0-10, n=6 panellists, Example 2
[5] = sample B: orange juice containing 7.8 ppm limonin + 10 ppm racemic eriodictyol, scale 0-10, Example 5
[6] = 30 ppm in the examined orange juice
[7] = 30 ppm racemic homoeriodictyol-sodium-salt vs orange juice (7.8 ppm limonin) alone, Example 4
[8] = 50 ppm racemic homoeriodictyol-sodium-salt vs orange juice (7.8 ppm limonin) alone, Example 3
[9] = orange juice containing 7.8 ppm limonin + 30 ppm racemic homoeriodictyol-sodium-salt, scale 0-10, n=6 panellists, Example 4
[10] = orange juice containing 7.8 ppm limonin + 50 ppm racemic homoeriodictyol-sodium-salt, scale 0-10, n=6 panellists, Example 3
[11] = 20 ppm in the examined orange juice
[12] = 20 ppm racemic naringenin vs orange juice (7.8 ppm limonin) alone, Example 1
[13] = orange juice containing 7.8 ppm limonin + 20 ppm racemic naringenin, scale 0-10, n=6 panellists, Example 1

O=C1C[C@@H](c2ccc(O)c(O)c2)Oc2cc(O)cc(O)c21 (racemic) [racemic eriodictyol, eriodictyol]
effect on bitter taste (in words) [1]: strong reduction
effect on sour perception (in words) [1]: decreased
effect on sweet impression (in words) [1]: increased
Relative change Bitter [2]: −32%
Relative change Sour [2]: −20%
Relative change Sweet [2]: +28%
Relative change A/B Bitter [3]: −21%
Relative change A/B Sour [3]: −12%
Relative change A/B Sweet [3]: +40%
Evaluation (0-10) Bitter [4]: 3.2
Evaluation (0-10) Sour [4]: 4.4
Evaluation (0-10) Sweet [4]: 5.1
Evaluation (0-10) Bitter [5]: 3.9
Evaluation (0-10) Sour [5]: 4.4
Evaluation (0-10) Sweet [5]: 4.2

COc1cc([C@@H]2CC(=O)c3c(O)cc(O)cc3O2)ccc1O (racemic) [racemic homoeriodictyol-sodium-salt, homoeriodictyol-sodium-salt]
effect on bitter taste (in words) [6]: clear reduction
effect on sour impression (in words) [6]: decreases
effect on sweet taste (in words) [6]: does not influence
Relative change Bitter [7]: −27%
Relative change Sour [7]: −12%
Relative change Sweet [7]: +3%
effect on sour perception (in words) (50 ppm in the examined orange juice): influenced more strongly
Relative change Bitter [8]: −13%
Relative change Sour [8]: −23%
Relative change Sweet [8]: +24%
Evaluation (0-10) Bitter [9]: 3.2
Evaluation (0-10) Sour [9]: 4.1
Evaluation (0-10) Sweet [9]: 4.8
Evaluation (0-10) Bitter [10]: 4.1
Evaluation (0-10) Sour [10]: 3.3
Evaluation (0-10) Sweet [10]: 4.0

O=C1C[C@@H](c2ccc(O)cc2)Oc2cc(O)cc(O)c21 (racemic) [racemic naringenin, naringenin]
effect on bitter taste (in words) [11]: clear reduction
effect on sour impression (in words) [11]: decrease
effect on sweet impression (in words) [11]: increase
Relative change Bitter [12]: −31%
Relative change Sour [12]: −25%
Relative change Sweet [12]: +30%
Evaluation (0-10) Bitter (orange juice containing 7.8 ppm limonin + 20 ppm racemic naringenin, scale 0 (no taste) to 10 (strong taste), n=6 panellists, Example 1): 3.4
Evaluation (0-10) Sour [13]: 3.3
Evaluation (0-10) Sweet [13]: 5.2
